Experimental findings from patent US10766912B2 (priority 2017, dated 2020) are described below.

For data set [1], the system named is hepatitis C virus HCVcc (GT2a, JFH-1). Description: Assay Example 3: activity against infective hepatitis C virus HCVcc (GT2a, JFH-1). Format: cell-based. The conditions noted are these: Huh-7.5.1, 72 h, read-out: EC50 Value GT2a HCVcc. The method, then: Cells: Huh7.5.1 cells and hepatitis C virus HCVcc (GT2a, JFH-1) infection system.
Treatment of Compound: According to the assay final concentrations of the compounds in Table 6, DMSO stock solutions of the compounds were diluted and then added to a 96-well assay plate. The final concentration of DMSO was 0.5%.
Viral infection: Huh7.5.1 cells were seeded in a 96-well cell culture plate, and the cells were cultured overnight at 37° C. in an incubator with 5% CO2 for later use. The compound and the HCVcc virus solution (MOI=0.1) were simultaneously added to the cells, and the virus infection was cultured for 3 days. Parallel cytotoxicity assay was identical to the method for the inhibition of the virus but without viral infection.
Drug activity assay: The activity of hRLuc was detected by the addition of Renilla luciferase assay reagent. The original data (RLU) was used for the calculation of the activity of the compounds.
The activity of the compounds was calculated by using the equation below: Inhibition %=(CPD−VC)/(CC−VC)×100%*
The cell viability percentages (Cell Viability %) and the compound activity percentages (Inhibition %) were imported into GraphPad Prism software, respectively, and curves were fitted by using nonlinear regression method to obtain the corresponding curves of the compounds, and the cytotoxicity (CC50) thereof and inhibitory activity (EC50) values against the HCV replicon thereof.

Data set [2] deals with HCV GT1a wild-type replicon. Kind of data set: Assay Example 6: drug resistance, activity against HCV GT1a wild-type replicon. As to conditions: Hepatitis C virus, 72 h, Huh-7 cells, transient transfection, 3 days, read-out: GT1a-wt EC50 value. The class given is cell-based. As for the experimental part: (§1) Cells: Huh-7 cells are liver cancer cell strains (from AppTec, USA), HCVGT1a wild-type replicon and GT1a-NS5A-Y93H and GT1a-NS5A-L31V mutant replicons
(§2) Treatment of Compound: According to the assay final concentrations of the compounds in Table 11, DMSO stock solutions of the compounds were diluted and then added to a 96-well assay plate. The final concentration of DMSO was 0.5%.
(§3) The preparation of cells: After replicon plasmid DNA was linearized with a corresponding restriction enzyme, the DNA was transcribed into RNA by using T7 RNA polymerase. Replicon RNA prepared by transcription in vitro was transfected into Huh-7 cells by electroporation. Transfected cells were seeded at a density of 10,000 cells per well into the 96-well assay plate containing the diluted compounds, and then placed in a 37° C. incubator with 5% CO2 and cultured for 3 days.
(§4) Compound activity assay: Luminescence signal value (RLU) was detected with Envision within 5 minutes by using the luciferase assay reagent Britelite plus, and the original data (RLU) was used for the calculation of the activity of the compounds.
(§5) The activity of the compounds was calculated by using the equation below: Inhibition %=(CPD−ZPE)/(HPE−ZPE)×100%*
(§6) The compound activity percentages (Inhibition %) were imported into GraphPad Prism software, and curves were fitted by using nonlinear regression method to obtain the corresponding curves of the compounds and the inhibitory activity (EC50) values against the HCV replicon thereof.
(In antiviral work, replicon cells carry a viral genome segment that copies itself.)

In data set [3] the test system is GT1a-NS5A-L31V mutant replicon. Kind of data set: Assay Example 6: drug resistance, activity against GT1a-NS5A-L31V mutant replicon. The conditions noted are these: for GT1a-NS5A-L31V Fold change: EC50 mutant versus GT1a-wt; for EC50: Hepatitis C virus, GT1A, Huh-7, 72 h, read-out: GT1a-NS5A-L31V EC50 value. Format: cell-based, hepatitis C virus. The method, then:
as §1, §2, §3, §4, §5, §6

Data set [4] in a line: Assay Example 4: distribution in rat plasma and liver tissue. The class given is in vivo. As to conditions: 10 mg/kg intragastric; for Kp at 0.5 h / Kp at 3 h / Kp at 8 h: male, oral, liver/plasma, read-out: Ratio (L/P). As for the experimental part:
Eighteen male rats were randomly divided into two groups of 9 rats each, fasted (free access to water) overnight, and then intragastrically administered with 10 mg/kg of Compound 1a and Compound 6b, respectively. The subject animals were sacrificed by bloodletting at 0.5 h, 3 h and 8 h after administration. About 1 mL of blood was taken, and anticoagulated with EDTA-K2. The blood samples were immediately placed in ice, and then transferred within 30 min to centrifuge and separate plasma at 4° C. and 4,000 rpm for 10 min. Meanwhile, the whole liver was taken out at the various time points, rinsed with ice-cold physiological saline, blotted dry, weighed, and prepared into a homogenate with physiological saline (W/V=1:5). All plasma and liver homogenates were collected and then immediately stored at −20° C. for testing.
The rats can be fed at 4 h after administration.
After being completely melted, all the samples were vortexed to mix evenly. 50 μL of the samples were pipetted into a 1.5 mL centrifuge tube respectively and then 300 μL of IS-D (20 ng/ml diazepam acetonitrile) solution was added to each sample (200 μL of acetonitrile was added to the blank sample). The samples were vortexed for 10 min and then centrifuged at 12,000 rpm and 4° C. for 10 min. After 80 μL of pure water was added to a 96-well plate, 80 μL of the supernatants were pipetted respectively from the centrifuge tubes to the 96-well plate, vortexed for 3 min, and then kept at 4° C. until LC-MS/MS injection analysis.

The subject of data set [5] is HCV GT1b/5a NS5A chimeric replicon. Description: Assay Example 2: activity against GT1b/5a NS5A chimeric replicon. Format: cell-based. The conditions noted are these: Hepatitis C virus, Huh-7, 72 h, read-out: EC50 Value GT1b/5a-NS5A-wt. As for the experimental part:
Cells: Huh-7 cells are liver cancer cell strains (from AppTec, USA), HCV GT1a and GT1b wild type (wt) replicons, GT1b/3a, GT1b/4a, GT1b/5a and GT1b/6a NS5A chimeric replicons.
Treatment of Compound: According to the assay final concentrations of the compounds in Table 5, DMSO stock solutions of the compounds were diluted and then added to a 96-well assay plate. The final concentration of DMSO was 0.5%.
as §3
Drug activity assay: Luminescence signal value (RLU) was detected with Envision within 15 minutes using the luciferase assay reagent Britelite plus, and the original data (RLU) was used for the calculation of the activity of the compounds.
The cytotoxicity of the compounds was calculated by using the equation below: Cell Viability %=(CPD−HPE)/(ZPE−HPE)×100%* The activity of the compounds was calculated by using the equation below: Inhibition %=(ZPE−CPD)/(ZPE−HPE)×100%*
The cell viability percentages (Viability %) and the inhibition percentages (Inhibition %) were imported into GraphPad Prism software, respectively, and curves were fitted by using nonlinear regression method to obtain the corresponding curves of the compounds, and the cytotoxicity (CC50) thereof and the inhibitory activity (EC50) values against the HCV replicon thereof.

Take `COC(=O)N[C@H](C(=O)N1CCC[C@H]1C(=O)Nc1ccc([C@H]2CC[C@H](c3ccc4nc([C@@H]5CCCN5C(=O)[C@@H](NC(=O)OC)[C@@H](C)OC)[nH]c4c3)N2c2cc(F)c(N3CC[Si](C)(C)CC3)c(F)c2)cc1)[C@@H](C)OC` [Compound 6b]: the EC50 in data set [1] was found to be 1.37 pM; in data set [2], 2.2 pM; in data set [3], 22 pM; in data set [5], 4.32 pM. The “GT1a-NS5A-L31V Fold change” value in data set [3] is 10.0. In addition, the results for the Liver concentration in data set [4] (0.5 h), in data set [4] (3 h) and in data set [4] (8 h) were 212 ± 57.2, 495 ± 171 and 77.5 ± 20.6, respectively. The Plasma concentration in data set [4] (0.5 h) was determined as 19.8 ± 8.31; in data set [4] (3 h), 34.8 ± 14.7; in data set [4] (8 h) it was 5.82 ± 0.99. Further, in data set [4] (0.5 h), the Kp at 0.5 h turned out to be 10.7. The Kp at 3 h in data set [4] (3 h) was 14.2. Also, the Kp at 8 h in data set [4] (8 h) was 13.3.

Take `COC(=O)N[C@H](C(=O)N1CCC[C@H]1C(=O)Nc1ccc([C@@H]2CC[C@@H](c3ccc(NC(=O)[C@@H]4CCCN4C(=O)[C@@H](NC(=O)OC)[C@@H](C)OC)cc3)N2c2cc(F)c(N3CC[Si](C)(C)CC3)c(F)c2)cc1)[C@@H](C)OC` [Compound 1a, Methyl ((2S,2′S,3R,3′R)-((2S,2′S)-(((((2S,5S)-1-(4-(4,4-dimethylazasilinan-1-yl)-3,5-difluorophenyl)pyrrolidin-2,5-diyl)bis(4,1-phenylene))bis(azanediyl))bis(carbonyl))bis(pyrrolidin-2,1-diyl))bis(3-methoxy-1-oxobutan-1,2-diyl))dicarbamate]: in data set [3], the “GT1a-NS5A-L31V Fold change” value came to 40.9 and the EC50 was determined as 27 pM. Moreover, in data set [4] (0.5 h), the Liver concentration is given as 384 ± 121, the Plasma concentration was 54.7 ± 7.82 and the Kp at 0.5 h worked out at 7.01. Moreover, in data set [4] (3 h), the Liver concentration is given as 1711 ± 485, the Plasma concentration amounted to 70.1 ± 20.6 and the Kp at 3 h is 24.4. In data set [4] (8 h), the Liver concentration was found to be 1087 ± 822, the Plasma concentration was 59 ± 33.7 and the Kp at 8 h was 18.4. In addition, the EC50 in data set [5] came out at 1.62 pM.
